Here are results for two compounds from patent publication EP0284686A1, “Condensed triazoles, their preparation and their use as medicines” (BEECHAM GROUP PLC, priority 1986, dated 1988).

For one assay, the target named is T1, RBL-1 5-lipoxygenase (Rattus norvegicus, UniProt P12527).
T1 construct: 5-Lipoxygenase enzyme was prepared as a 10,000g supernatant from RBL-1 cells; endogenous in cells; host or cells: RBL-1 cells (10,000g supernatant of homogenate)
T1 sequence (P12527 1-673): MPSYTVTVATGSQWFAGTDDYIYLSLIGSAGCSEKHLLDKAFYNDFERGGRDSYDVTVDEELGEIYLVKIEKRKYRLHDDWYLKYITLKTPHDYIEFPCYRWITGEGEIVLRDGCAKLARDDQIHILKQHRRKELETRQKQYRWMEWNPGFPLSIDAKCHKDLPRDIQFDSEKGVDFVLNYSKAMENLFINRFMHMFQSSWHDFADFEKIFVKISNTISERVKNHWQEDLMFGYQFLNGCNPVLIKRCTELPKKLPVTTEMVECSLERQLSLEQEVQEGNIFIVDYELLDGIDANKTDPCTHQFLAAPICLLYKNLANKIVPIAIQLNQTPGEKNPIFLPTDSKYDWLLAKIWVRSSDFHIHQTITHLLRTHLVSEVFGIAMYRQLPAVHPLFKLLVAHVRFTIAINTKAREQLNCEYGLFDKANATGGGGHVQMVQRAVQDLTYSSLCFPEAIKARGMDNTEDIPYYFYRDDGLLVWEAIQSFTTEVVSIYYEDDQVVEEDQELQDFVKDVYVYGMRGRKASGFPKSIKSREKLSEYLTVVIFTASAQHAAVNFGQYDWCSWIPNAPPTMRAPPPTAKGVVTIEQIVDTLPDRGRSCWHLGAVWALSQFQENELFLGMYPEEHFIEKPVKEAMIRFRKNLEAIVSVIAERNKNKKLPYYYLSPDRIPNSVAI
The assay can be described thus: RBL-1 5-lipoxygenase screen. The format is biochemical. Conditions: 10,000g supernatant from RBL-1 cells, formation of 5-HETE and 5,12-diHETE from [1-14C] arachidonic acid, read-out: Percentage inhibition of RBL-1 5-lipoxygenase at 20µM. The method, then:
5-Lipoxygenase enzyme was prepared as a 10,000g supernatant from RBL-1 cells by the method of Jakschik (Jakschik, B.A., F.F. Sun, L.M.Lee, and M.M. Steinhoff, 1980, Biochem. Biophys. Res.Comm. 95 103). The 10,000g supernatant was diluted with homogenization buffer to the equivalent of 1.5 - 2.5 × 10⁷ cells. ml.⁻¹ and made 2mM with respect to CaCl₂. Aliquots of 0.5ml were then dispensed into tubes, and incubated at 29°C with 5µl ethanol or compound in ethanol at the desired concentration for 2min. Then [1-¹⁴C] arachidonic acid was added in buffer to give a final concentration of 6.3µM and 0.2µCi per incubation, and the reaction continued at 29°C for 2min. The reaction was terminated by adding 1ml of acetone and cooling on ice, 0.5ml of ice-cold saline and 100µl of 2N formic acid were added, and the mixture was extracted with 2 × 2ml of chloroform. The extract was stored under N₂ at -20°C until analysis by chromatography. Activity was measured as the percentage of total radioactivity found in 5-HETE and 5,12-diHETE, and inhibition calculated as the decrease in formation of the sum of these two species in compound-treated incubates relative to control incubations.

Assay [1] has as its system passive peritoneal anaphylaxis. Kind of assay: Rat passive peritoneal anaphylaxis (PPA). In kind it is in vivo. Particulars: i.p., final concentration 2×10⁻⁴M, contact time 2½ minutes. As for the experimental part:
The method is essentially similar to that described previously by Ross et al (Ross, Janet W., Smith, H. and Spicer, Barbara A. Increased vascular permeability during passive peritoneal anaphylaxis in the rat. Int. Arch. Allergy appl. Immun. 51, 226, 1976.)
Charles River Sprague Dawley male rats of 225-275 g and Dunkin Hartley male white guinea pigs of 250-300 g were used.
Charles River Sprague Dawley male rats of 225 - 275 g were given intraperitoneal injections of 0.5 ml of either Bordetella pertussis vaccine (4 × 10¹⁰ organisms/ml; Burroughs Wellcome, London) or Pertussis vaccine absorbed (not less than 41.u. B. pertussis antigen with aluminium hydroxide; The Lister Institute Elstree, England), and subcutaneous injections of 0.5ml of an emulsion of 100 mg of ovalbumin (chicken egg albumin; crystallised and lyophilised, grade V, Sigma, London) in 2ml of isotonic saline and 3ml of incomplete Freund's adjuvant. The rats were bled by cardiac puncture on day 18, the blood was pooled and the serum separated, stored at -20°C and thawed only once before use. The serum produced 72 hour passive cutaneous anaphylaxis activity in recipient rats to a dilution of 1:64 to 1:32 which was decreased to a dilution of less than 1:2 by heating at 56°C for 4 hours.
Rats were given intraperitoneal injections of 2 ml of a 1:5 dilution of the rat anti-serum in isotonic saline. Two hours later 0.3ml of 5% solution of Pontamine Sky Blue (Raymond A. Lamb, London) in isotonic saline was injected intraveneously, followed by an intraperitoneal injection of the test compound in 1 ml of saline; (control rats received 1 ml of saline); followed 2.5 minutes later by an intraperitoneal injection of 5 ml of a Tyrode solution containing 50µg/ml heparin and 0.4 mg/ml of ovalbumin. The concentrations of the compounds were quoted as that in the 6 ml of fluid injected intraperitoneally. […]
The optical densities (OD) of the supernatants which were not contaminated with blood were determined immediately at 625nm. […]

One may read the inhibition as the share of the control response that was lost under treatment. Consider `Cc1ccc(O)c2c1nnn2Cc1ccccc1` [Example 1, 3-Benzyl-4-hydroxy-7-methylbenzotriazole], for which the inhibition at 20 µM at RBL-1 5-lipoxygenase worked out at 89%.

For `Cc1ccc(O)c2nn(Cc3ccccc3)nc12` [Example 2, 2-Benzyl-4-hydroxy-7-methylbenzotriazole], the inhibition at 20 µM on RBL-1 5-lipoxygenase was determined as 81%. Also, the “Percentage inhibition SRS-A” value in assay [1] (SRS-A in peritoneal fluid assayed on guinea pig ileum) turned out to be 49. The “Percentage inhibition Dye” value in assay [1] (dye in peritoneal fluid (OD 625nm)) amounted to 30. Besides, in assay [1] (histamine in peritoneal fluid), the “Percentage inhibition Histamine” value stood at 45.
